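Cells were grown in 96-well plates and exposed to each compound for 48 hours at five concentrations; endpoints were interpolated linearly between bracketing concentrations, or set to the highest concentration if not reached. The concentration for 50% growth inhibition is given as GI50.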 Calls of active or inactive are those of the source. Rule as the data show it: active = GI50 up to about 1.1 µM and inactive = higher. Where a SMILES comes first, the peptide text is derived from it. [ ]: non-standard residue; d: D form. The star is where a group is joined. ξ: configuration not given here. ξF = NC(Cc1ccccc1)C(=O)O; Cbz = O=C(OCc1ccccc1)*; Aib = CC(C)(N)C(=O)O
How the values were obtained:
Assay in all cases: DTP human tumour cell line panel, 48 h
[1] = test system: HL-60
[2] = test system: PC-3
[3] = test system: NCI/ADR-RES
[4] = test system: MDA-MB-231
[5] = test system: KM12
[6] = test system: SF-268
[7] = test system: HCT-15
[8] = test system: UO-31
[9] = test system: Malme-3M
[10] = test system: SK-MEL-28
[11] = test system: SK-MEL-2
[12] = test system: SF-539
[13] = test system: NCI-H23
[14] = test system: MDA-MB-435
[15] = test system: NCI-H226

`CC1CN=C(N(C(=O)Nc2ccc(Cl)c(Cl)c2)c2ccccc2)S1` (centres undefined) was tested, and the GI50 [1] was > 10 µM (inactive), the GI50 [2] was 37.8 µM (inactive) and the GI50 [3] was 34.8 µM (inactive). The GI50 [4] was > 100 µM (inactive), the GI50 [5] was 32.1 µM (inactive) and the GI50 [6] was 69.2 µM (inactive). For the same compound, the GI50 [7] was 27 µM, the GI50 [8] was > 100 µM (inactive) and the GI50 [9] was 76.7 µM (inactive). For the same compound, the GI50 [10] was 38.5 µM (inactive), the GI50 [11] was 23 µM (inactive) and the GI50 [12] was 39.4 µM (inactive). The GI50 [13] was 64.9 µM (inactive).
For `COC(=O)C(C)(C)NC(=O)C(Cc1ccccc1)NC(=O)C(C)(C)NC(=O)OCc1ccccc1` (centres undefined) (Cbz-[Aib]-[ξF]-[Aib]-OMe), the GI50 [1] was > 100 µM (inactive), the GI50 [2] was > 100 µM (inactive) and the GI50 [3] was > 100 µM (inactive). For the same compound, the GI50 [4] was > 100 µM (inactive), the GI50 [6] was > 100 µM (inactive) and the GI50 [7] was over 100 µM. For the same compound, the GI50 [8] was > 100 µM (inactive), the GI50 [9] was > 100 µM (inactive) and the GI50 [10] was > 100 µM (inactive). For the same compound, the GI50 [14] was > 100 µM (inactive).
In the case of `Cn1c(=O)c2c(nc(N/N=C3/SCC(=O)N3Cc3ccccc3)n2C)n(C)c1=O`, the GI50 [2] is reported as 39.2 µM (inactive), the GI50 [3] is reported as > 100 µM (inactive) and the GI50 [4] is reported as 60.7 µM (inactive). The GI50 [5] was 94.2 µM (inactive), the GI50 [6] was 60.7 µM (inactive) and the GI50 [7] was 85.5 µM. For the same compound, the GI50 [8] was > 100 µM (inactive), the GI50 [9] was > 100 µM (inactive) and the GI50 [10] was > 100 µM (inactive). The GI50 [11] was 58.7 µM (inactive), the GI50 [15] was > 100 µM (inactive) and the GI50 [12] was 25.6 µM (inactive). The GI50 [14] was > 100 µM (inactive) and the GI50 [13] was > 100 µM (inactive).
With `COc1ccccc1-c1cc(O)c2c(C)cc(C)nc2n1` the GI50 [3] was 54.7 µM (inactive), the GI50 [4] was 84.3 µM (inactive) and the GI50 [5] was 29.1 µM (inactive). For the same compound, the GI50 [6] was 84.3 µM (inactive), the GI50 [7] was 58.3 µM and the GI50 [8] was 47.1 µM (inactive). For the same compound, the GI50 [9] was 48 µM (inactive), the GI50 [10] was > 100 µM (inactive) and the GI50 [11] was 45.9 µM (inactive). For the same compound, the GI50 [15] was > 100 µM (inactive), the GI50 [12] was > 100 µM (inactive) and the GI50 [13] was 56.1 µM (inactive).
For `Cc1cc(NC2=NCCO2)c2c(c1C)CCCC2`, the GI50 [1] was 10.6 µM (inactive), the GI50 [3] was 18.1 µM (inactive) and the GI50 [4] was 24 µM (inactive). For the same compound, the GI50 [5] was 13.2 µM (inactive), the GI50 [6] was 18.9 µM (inactive) and the GI50 [7] was 16.7 µM. The GI50 [8] was 1.91 µM (inactive), the GI50 [9] was 11.6 µM (inactive) and the GI50 [10] was 15.4 µM (inactive). The GI50 [15] was 1.27 µM (inactive), the GI50 [12] was 0.0536 µM (active) and the GI50 [14] was 14.4 µM (inactive). For the same compound, the GI50 [13] was 18 µM (inactive).
With `COC(=O)c1ccc(S)c(S(=O)(=O)Nc2nc(N)n[nH]2)c1` the GI50 [1] was > 100 µM (inactive), the GI50 [2] was > 100 µM (inactive) and the GI50 [3] was > 100 µM (inactive). For the same compound, the GI50 [4] was > 100 µM (inactive), the GI50 [5] was > 100 µM (inactive) and the GI50 [7] was over 100 µM. For the same compound, the GI50 [8] was > 100 µM (inactive), the GI50 [9] was > 100 µM (inactive) and the GI50 [10] was > 100 µM (inactive). For the same compound, the GI50 [11] was > 100 µM (inactive), the GI50 [12] was > 100 µM (inactive) and the GI50 [14] was > 100 µM (inactive). For the same compound, the GI50 [13] was > 100 µM (inactive).
`CN1COCc2c1ccc1cc3ccc4c(c3nc21)COCN4S(C)(=O)=O` was tested, and the GI50 [2] was > 100 µM (inactive), the GI50 [3] was > 100 µM (inactive) and the GI50 [4] was > 100 µM (inactive). The GI50 [5] was > 100 µM (inactive), the GI50 [6] was > 100 µM (inactive) and the GI50 [7] was over 100 µM. For the same compound, the GI50 [8] was > 100 µM (inactive), the GI50 [9] was > 100 µM (inactive) and the GI50 [10] was > 100 µM (inactive). The GI50 [15] was > 100 µM (inactive), the GI50 [14] was > 100 µM (inactive) and the GI50 [13] was > 100 µM (inactive).
With `O=C(O)Cc1cccc2c(=O)c3cccc([N+](=O)[O-])c3[nH]c12` the GI50 [1] was > 100 µM (inactive), the GI50 [2] was > 100 µM (inactive) and the GI50 [3] was > 100 µM (inactive). The GI50 [4] was > 100 µM (inactive), the GI50 [5] was 85.1 µM (inactive) and the GI50 [7] was 71.8 µM. The GI50 [8] was > 100 µM (inactive), the GI50 [9] was 29.4 µM (inactive) and the GI50 [11] was 72.1 µM (inactive). For the same compound, the GI50 [12] was 29.7 µM (inactive), the GI50 [14] was > 100 µM (inactive) and the GI50 [13] was > 100 µM (inactive).

Reference: ChEMBL document CHEMBL1201862, “PubChem BioAssay data set” (2004)
